Reference: patent publication US9128108B2, “Mephedrone detection” (Randox Laboratories Limted, priority 2010, dated 2015)

Test system: raised antibody (polyclonal IgG raised against Immunogen 1, Hapten 1-BSA)
Test: Competitive ELISA with Hapten 1-HRP conjugate confirming binding of raised antibody
Parameters: species or system sheep
Conditions: for binding of raised antibody (in words): competitive immunoassay at different antibody and conjugate concentrations; for Standard Absorb. / % Drop: standard 100 ng/ml; for Standard Absorb.: absorbance at 450 nm; for % Drop: drop of absorbance versus zero standard
Description: The process of developing an immunoassay is well known to the person skilled in the art. Briefly, for a competitive immunoassay in which the target analyte is a non-immunogenic molecule such as a hapten, the following process is conducted: antibodies are produced by immunising an animal, preferably a mammalian animal, by repeated administration of an immunogen. The serum from the immunised animal is collected when the antibody titre is sufficiently high. A conjugate is added to a sample containing the target analyte and the raised antibodies, and the conjugate and analyte compete for binding to the antibodies. The process may comprise fixing said serum antibodies to a backing substrate such as a polystyrene solid support or a biochip. The antibodies can be polyclonal or monoclonal, monoclonal antibodies being obtainable from polyclonal sera using standard techniques. The signal emitted in the immunoassay is proportionate to the amount of conjugate bound to the antibodies which in turn is inversely proportionate to the analyte concentration. The signal can be detected or quantified by comparison with a calibrator.
Hapten 1 was conjugated to bovine serum albumin (BSA). The resulting immunogen (Immunogen 1) was administered to adult sheep on a monthly basis to provide target-specific polyclonal antisera. IgG was extracted from the antisera via caprylic acid/ammonium sulphate precipitation of immunoglobulin. Microtitre plates (Thermo Scientific, 468667) were coated with antibody (125 μl) in coating buffer (10 mM Tris pH 8.5) at 37° C. for 2 hours. The plates were then washed 4 times over 10 minutes with working strength TBST. 50 μl of sample/standard (Methcathinone, Sigma M-5037; Cathinone, Sigma C-3196 and Mephedrone, Randox LK973) was added to the appropriate wells in triplicate, followed by 75 μl of Hapten 1-HRP conjugate and incubated at 25° C. for 1 hour. The plates were then washed and 125 μl of TMB (Randox, 4380-15) was added to each well and left at room temperature for 20 mins in the dark. The reaction was stopped using 125 μl of 0.2M sulphuric acid. The absorbances were read at 450 nm with an ELISA microplate reader (BIO-TEK Instruments, Elx800) and the means calculated.
Competitive immunoassay results at different antibody and conjugate concentrations show the raised antibody binds to mephedrone, methcathinone and cathinone (Table 1).

[1] = antibody 1.25 ug/ml, Hapten 1-HRP conjugate dilution 1/8K, zero absorb. 1.986
[2] = antibody 1.25 ug/ml, Hapten 1-HRP conjugate dilution 1/8K
[3] = antibody 5 ug/ml, Hapten 1-HRP conjugate dilution 1/4K, zero absorb. 1.961
[4] = antibody 5 ug/ml, Hapten 1-HRP conjugate dilution 1/4K

SMILES: CNC(C)C(=O)c1ccc(C)cc1 (racemic) [Mephedrone, (RS)-2-methylamino-1-(4-methylphenyl)propan-1-one]
- binding of raised antibody (in words): binds
- Standard Absorb. [1]: 0.087
- % Drop [2]: 95.6%
- Standard Absorb. [3]: 0.120
- % Drop [4]: 93.9%

SMILES: CNC(C)C(=O)c1ccccc1 (stereo not drawn) [Methcathinone, 2-methylamino-1-phenylpropan-1-one]
- binding of raised antibody (in words): binds
- Standard Absorb. [1]: 0.169
- % Drop [2]: 91.5%
- Standard Absorb. [3]: 0.205
- % Drop [4]: 89.5%

SMILES: C[C@H](N)C(=O)c1ccccc1 [Cathinone]
- binding of raised antibody (in words): binds
- Standard Absorb. [1]: 1.515
- % Drop [2]: 23.7%
- Standard Absorb. [3]: 1.600
- % Drop [4]: 18.4%
